Measurements from US11311599B2, “β-1,3-glucan-peptide complex: compositions and methods” (priority 2018, dated 2022).
No end group written: not given here.

Legend:
NADPH oxidase [1] = test: NADPH oxidase activity in LPS-stimulated RAW2647 cells (lucigenin-ECL superoxide); format: cell-based, mouse; conditions: RAW2647 cells stimulated with LPS; treated at 1, 5 or 10 μg/mL; FIG. 2
Experimental: A mouse macrophage cell line, which is RAW2647 (ATCCTIB-71; American Type Culture Collection) cells, was cultured using DMEM (Invitrogen) containing 10% fetal bovine serum (FBS; Invitrogen), sodium pyruvate, non-essential amino acids, penicillin G (100 IU/ml) and streptomycin (100 μg/ml).
Whether reactive oxygen species (ROS) production is inhibited when RAW2647 cells were treated with each of SPG-SH1, SPG-SH2 or SPG-SH3 was determined. Particularly. NADPH oxidase (NOX) activity and a mitochondrial ROS level were confirmed.
Particularly, after the RAW2647 cells were stimulated with LPS, SPG-SH1, SPG-SH2 or SPG-SH3 was treated at a concentration of 1, 5 or 10 μg/mL, respectively. The NADPH oxidase activity was confirmed by measuring the production of a superoxide in the RAW2647 cells by a lucigenin (bis-N-methylacridinium nitrate)-ECL method. The production of mitochondrial ROS was determined by staining the RAW2647 cells with 5 μM of MitoSOX for 30 minutes and then measuring mean fluorescence intensity (MFI) by FACS analysis.

NADPH oxidase [2] = test: NADPH oxidase activity in spleen of CLP mice; format: in vivo; conditions: spleen of CLP mouse; intraperitoneal at 3, 6 and 12 hours, doses of Table 1; FIG. 3
Experimental: (§1) The pharmaceutical composition of the present invention was intraperitoneally administered into a CLP mouse to confirm an antiinflammatory effect thereof. Specifically, the CLP mouse was anesthetized by administering pentothal sodium (50 mg/kg) intraperitoneally, and then its abdomen was dissected to expose the cecum. The cecum was ligated below the ileocecal valve, punctured twice with a 22-gauge needle, and then the abdomen was closed.
(§2) Sepsis mouse models induced by cecal ligation and puncture (CLP) were prepared using 6-week-old C57BL/6 female mice (Samtako, Korea). All animal-related procedures were approved by the Institutional Animal Care and Use Committee of Hanyang University. The CLP mice were intraperitoneally administered three times (at 3, 6 and 12 hours) with an administered substance shown in Table 1. SPG-SC is a peptide complex having a sequence in which SPG-SH3 sequences were randomly mixed, and as the antibiotic, a combination of gentamycin and cephalosporin was used.
(§3) Particularly, CLP mice (n=5) treated with the same administered substances as in Example <1-1> were prepared. […] Alternatively, the spleen of the CLP mouse was obtained and fractionated, a 5 μM reagent in a mitochondrial ROS activity assay kit (CA-R933) was treated for 60 minutes, and Ex/Em was measured at 490/525 nm. […]

CLP mice [3] = test: Total ROS in spleen of CLP mice; format: in vivo; conditions: spleen of CLP mouse; intraperitoneal at 3, 6 and 12 hours, doses of Table 1; FIG. 3
Experimental: as §1, §2, §3

CLP mice [4] = test: Survival of mice with CLP-induced sepsis; format: in vivo, mouse; conditions: approximately 60 hours after CLP treatment, doses of Table 1, FIG. 4
Experimental: as §1, §2
Specifically. CLP mice (n=7, twice; total 14) were treated with the administered substances as in Example <1-1> and monitored for 7 days.

TNF-α = TNF-α in peripheral blood of CLP mice (ELISA); format: in vivo, mouse; conditions: 20 hours after treatment, FIG. 5
Experimental: as §2
(§4) Whether a pro-inflammatory cytokine was inhibited when CLP mice were treated with a combination of SPG-SH3 and an antibiotic was determined.
(§5) Specifically, 20 hours after CLP mice were treated with the same administered substances as in Example <1-1>, the peripheral blood was obtained. The concentrations of TNF-α, IL-6, IL-1β and IL-18 in the blood were measured using an ELISA kit (BD Biosciences).

IL-6 = IL-6 in peripheral blood of CLP mice (ELISA); format: in vivo, mouse; conditions: 20 hours after treatment, FIG. 5
Experimental: as §2, §4, §5

IL-1β = IL-1β in peripheral blood of CLP mice (ELISA); format: in vivo, mouse; conditions: 20 hours after treatment, FIG. 5
Experimental: as §2, §4, §5

IL-18 = IL-18 in peripheral blood of CLP mice (ELISA); format: in vivo, mouse; conditions: 20 hours after treatment, FIG. 5
Experimental: as §2, §4, §5

Sequence of NADPH oxidase (O70145 whole entry): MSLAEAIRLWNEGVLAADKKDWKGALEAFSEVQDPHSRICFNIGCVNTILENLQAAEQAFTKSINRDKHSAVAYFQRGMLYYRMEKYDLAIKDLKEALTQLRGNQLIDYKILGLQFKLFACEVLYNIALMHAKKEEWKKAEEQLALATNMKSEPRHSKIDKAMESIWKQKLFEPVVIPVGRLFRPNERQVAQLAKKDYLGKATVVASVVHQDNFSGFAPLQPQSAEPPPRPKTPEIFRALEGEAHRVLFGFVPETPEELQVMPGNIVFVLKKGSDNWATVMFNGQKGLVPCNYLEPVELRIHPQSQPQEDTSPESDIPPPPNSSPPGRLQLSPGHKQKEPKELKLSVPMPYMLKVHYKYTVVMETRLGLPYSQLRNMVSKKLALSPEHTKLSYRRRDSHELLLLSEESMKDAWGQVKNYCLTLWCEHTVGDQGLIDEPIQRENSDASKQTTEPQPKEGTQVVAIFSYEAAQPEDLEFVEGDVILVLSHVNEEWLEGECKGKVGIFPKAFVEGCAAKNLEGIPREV
Sequence of NADPH oxidase (Q09014 whole entry, further chain): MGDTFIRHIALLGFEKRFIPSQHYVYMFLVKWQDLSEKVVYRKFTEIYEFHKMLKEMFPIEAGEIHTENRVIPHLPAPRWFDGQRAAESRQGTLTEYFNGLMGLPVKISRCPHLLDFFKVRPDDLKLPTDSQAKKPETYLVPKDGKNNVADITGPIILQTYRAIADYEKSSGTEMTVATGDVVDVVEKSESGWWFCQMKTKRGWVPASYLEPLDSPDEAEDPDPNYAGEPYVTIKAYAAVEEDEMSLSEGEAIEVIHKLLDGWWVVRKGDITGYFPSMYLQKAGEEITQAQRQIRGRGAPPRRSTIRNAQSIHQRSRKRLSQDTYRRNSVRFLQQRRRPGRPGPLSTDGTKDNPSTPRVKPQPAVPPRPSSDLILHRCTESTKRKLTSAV

Substance	NADPH oxidase activity (NADPH oxidase [1])	NADPH oxidase activity level (NADPH oxidase [2])	total ROS level (CLP mice [3])	survival rate (CLP mice [4])	concentration of TNF-α (TNF-α)	concentration of IL-6 (IL-6)	concentration of IL-1β (IL-1β)	concentration of IL-18 (IL-18)
SH3: SH3 peptide, SEQ ID NO: 4, ALLSFKKGGQTGYIPSNYV, 19 amino acids, from SH3-1 and SH3-2 sequences of c-Src (SH3)	lowest							
SPG-SH3: β-glucan-peptide complex: schizophyllan (β-1,3-glucan) carboxylated and linked to amine group of SH3 peptide (SEQ ID NO: 4, ALLSFKKGGQTGYIPSNYV) (also: linked via amine group to carboxylated schizophyllan β-glucan)	lowest	significantly reduced	significantly reduced	approximately 70%	significantly reduced	significantly reduced	significantly reduced	significantly reduced
